Data on four compounds can be found in patent US6335159B1 (The Burnham Institute, priority 1988, dated 2002).

Holding throughout (type): cell-based
One assay relates to endogenous F9 cell RAR. Put plainly: CAT assay: reporter plasmid only transfected into F9 cells (endogenous RAR). Particulars: for induction of CAT activity: G17-2 construct alone. An excerpt:
Two different TREs, one the natural myosin heavy chain (MHC) promoter TRE, Izumo, S., et al., Nature, 334, 539 (1988), and the other a synthetic TRE—G17-2—derived from the rat growth hormone promoter, Glass, C. K., et al., Cell, 54, 313-323 (1988), were chosen, both references are incorporated herein by reference. The estrogen responsive element (ERE) used here is derived from the vitellogenin gene, Klein-Hitpass, L., et al., Cell 46, 1053-1061 (1986). As a convenient assay system a cotransfection CAT assay (chloramphenicol transacetylase) was chosen. When. […] Upon induction, MHC and G17-2-TRE constructs yield very similar levels of CAT activity. However, the MHC-TRE-CAT gene is highly constitutive (high basal level activity) whereas the G17-2 construct functions as an ideal RA inducible gene in that we observe a low basal activity and a more than 30 fold induction of CAT activity by RA (FIG. 6a and b). Similar levels of induction were obtained with TRα. F9 cells have been established as a cellular model for RA dependent differentiation and to contain RAR transcripts. Whether the endogenous F9 RAR can also activate the TRE-CAT genes, by transfecting the […] into F9 cells alone was investigated. […] The high basal level observed with the MHC construct prevents observation of a clear induction effect by the endogenous RAR. […]
F9 cells were cotransfected with 5 μg of the expression vectors PECE-RARε or PECE-TRα and 20 μg of the reporter plasmids G17-2 CAT or MHC-CAT. […] Fold activation is expressed as the ratio of relative CAT activity after hormone induction to relative CAT activity without hormone induction. […]
2×10^6 F9 cells were cultured as monolayer on gelatin-coated dishes in alpha-MEM (GIBCO, Santa Clara, Calif.), supplemented by 20% fetal calf serum (FCS), glutamine: and nucleosides as described in Grover, A., et al., J. Cell Biol. 96, […] (1983) which is incorporated herein by reference. […] For accurate determinations of chloramphenicol acetylation, the separated reaction products were cut out from silica plates and quantified in a scintillation counter. […]

In assay [1] the test system is TR and RAR (RARε plus TRα or TRβ). Put plainly: Cotransfection CAT assay: TR and RARε together with TRE-CAT gene (G17-2 CAT) in F9 and CV-1 cells. Particulars: only T3 added, TR and RAR cotransfected. On the procedure:
One possible implication of this finding is that certain genes should be inducible by either hormone (T3) or vitamin (RA) in cells containing both receptors. To zest this hypothesis and to investigate possible positive and/or negative interactions of TR and RAR, both receptors were cotransfected into the same cells together with a TRE-CAT gene. […] Approximately 70% of the maximal activity is observed when only T3 is added. […] In the absence of T3, TR prevents activation of TREs by RARs, while in the presence of T3, TR activates and also allows positive cooperativity with RAR. The dominating regulatory effect can be carried out by both TRα and TRβ on both the RARε (FIG. 9) and the F9 endogenous RAR. Significant repression of RARε activity in F9 cells is observed between RARε: TRα ratios of 1:1 to 4:1.
As shown in FIG. 9(a), 5 μg of PECE-RARε plus 5 μg of PECE-TRα were cotransfected together with 20 μg of G17-2 CAT into F9 cells. As a control, each receptor was also cotransfected with G17-2 CAT individually. Hormones were added as indicated. As shown in FIG. 9(b), 2.5 μg of PECE-TRβ plus 2.5 μg of PECE-RARε were cotransfected with 20 μg of G17-2 CAT into CV-1 cells. As a control, PECE-RARε was also cotransfected with G17-2 individually. Hormones were added as indicated. CAT activity was assayed as described in Example VI.

In assay [2] the target is T1, RAER chimaeric protein (RARε with hER DNA-binding domain) (Homo sapiens, UniProt P10826, DEL77-136/INS76TNDKGSMAMESAKETRYCAVCNDYASGYHYGVWSCEGCKAFFKRSIQGHNDYMCPATNQCTIDKNRRKSCQAC).
T1 construct: a 304 bp 5′ untranslated region, the complete open reading frame, and a 55 bp 3′ untranslated region; expressed in transfected cells; host or cells: HeLa cells, PECE-RAER expression vector
T1 sequence (P10826 with tags, fused parts or gaps isoform P10826-2): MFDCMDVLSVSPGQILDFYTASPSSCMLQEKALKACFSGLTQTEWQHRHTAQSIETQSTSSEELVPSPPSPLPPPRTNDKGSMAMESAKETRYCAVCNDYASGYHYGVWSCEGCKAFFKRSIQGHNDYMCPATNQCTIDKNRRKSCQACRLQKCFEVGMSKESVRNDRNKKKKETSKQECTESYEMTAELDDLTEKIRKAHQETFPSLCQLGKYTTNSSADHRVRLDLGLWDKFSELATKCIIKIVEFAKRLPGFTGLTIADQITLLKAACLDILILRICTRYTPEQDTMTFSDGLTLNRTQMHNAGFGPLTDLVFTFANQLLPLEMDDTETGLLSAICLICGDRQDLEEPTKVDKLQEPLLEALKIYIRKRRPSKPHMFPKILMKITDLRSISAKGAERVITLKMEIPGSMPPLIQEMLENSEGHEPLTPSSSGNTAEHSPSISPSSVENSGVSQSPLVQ
Put plainly: Co-transfection CAT assay: RAER chimaeric receptor plus ERE-CAT reporter gene in HeLa cells. The note with it: only at high concentrations (3×10^−6 M). On the technique in general: A reporter such as luciferase makes a cellular process visible.
Method: The hybrid receptor was then transfected into susceptible tissue-culture cells together with a reporter gene containing the relevant HRE. The effect of various potential activators of the novel receptor was measured from cells transiently transfected with both genes and grown in the presence and absence of the various ligands.
As a control, cells were treated with calcium phosphate or were transfected with the constitutive pSV2CAT vector. As further controls, cells were also transfected with ERE-CAT and ERE-CAT plus the oestrogen receptor (ER) expression vector pckR2ER and grown in the presence of Est.
After 5 hours, cells were shocked with 10% glycerol for 2 min. Eighteen hours after the start of transfection, steroid hormones or retinoids were added to the medium and cells were incubated for a further 24 hours before harvesting.

Turning to `N[C@@H](Cc1cc(I)c(Oc2ccc(O)c(I)c2)c(I)c1)C(=O)O` [T3], the “induction of CAT activity” value in the assay on endogenous F9 cell RAR (F9 cells, in the presence of T3) is on record as “no induction”. For the same compound, in assay [1], the “CAT activity, percent of the maximal activity” value is listed as “Approximately 70%”.

Consider `CC1=C(/C=C/C(C)=C/C=C/C(C)=C/C=O)C(C)(C)CCC1` [retinal], for which, in assay [2], the “induction of CAT gene expression” value is “some inducing effect”.

Consider `CC1=C(/C=C/C(C)=C/C=C/C(C)=C/C(=O)O)C(C)(C)CCC1` [retinoic acid], for which the “induction of CAT activity” value with endogenous F9 cell RAR (endogenous F9 RAR, in the presence of RA) was 12 fold. Moreover, in the assay on endogenous F9 cell RAR (G17-2 construct, F9 RAR, RA tested between 3×10^−11 and 10^−6 M), the “RA concentration at which TRE dependent CAT activity can be induced” value is listed as about 0.1 nM.

For the compound `CC1=C(/C=C/C(C)=C/C=C/C(C)=C/CO)C(C)(C)CCC1` [retinol], the “induction of CAT gene expression” value in assay [2] was “some inducing effect”.
